# Results: paper PMC10286336, “Potassium ion channels as a molecular target to reduce virus infection and mortality of honey bee colonies” (Virology Journal, 2023)
# Where two headings read alike, the source gives them in different places.
# Tests used:
# honey bees [1] = type: in vivo, Apis mellifera
# Protocol: An LC50 for paraquat in 1:1 sucrose diet was determined for 72 h of oral exposure by constructing a concentration–response curve. The ability of KATP modulators to rescue or synergize paraquat-induced mortality was then assessed by incorporating modulators into 1:1 sucrose containing paraquat. Mortality assessments and sampling of surviving bees was conducted at 24-h intervals. Quantification of ROS among survivors was performed using the Total Antioxidant Capacity Assay kit (Cayman Chemical).
# honey bees [2] = type: in vivo, Apis mellifera; remark: listed apart in the source
# Protocol: (§1) The ability of KATP modulators to rescue or synergize paraquat-induced mortality was then assessed by incorporating modulators into 1:1 sucrose containing paraquat. […] Quantification of ROS among survivors was performed using the Total Antioxidant Capacity Assay kit (Cayman Chemical).
# [3] = system: total antioxidant concentrations in bees; test: Total antioxidant capacity of bees (quantification of ROS); type: in vivo, Apis mellifera; conditions: alone
# Protocol: as §1
# phenoloxidase (POX) = test: Phenoloxidase activity of treated bees (individual immunity); type: in vivo, Apis mellifera
# Protocol: (§2) Individual bees were sampled at 24-h intervals and frozen in liquid nitrogen. Social immunity was measured by quantifying the metabolism of glucose to hydrogen peroxide by glucose oxidase. Briefly, heads were homogenized in ice-cold extraction buffer then centrifuged at 15,000×g. Aliquots of supernatant were incubated with horse radish peroxidase and glucose at 37 °C, then combined with the chromogen o-dianisidine dihydrochloride. Absorbance was read at 430 nm over a period of 90 min and compared to sample blanks, lacking chromogen. To measure individual immunity, phenoloxidase activity was measured as described. Abdomens were homogenized as and centrifuged as previously described. Supernatant was incubated at 37 °C, then combined with the chromogen L-Dopa. Absorbance was measured at 490 nm for 20 min, then compared to sample blanks lacking chromogen. To compare both glucose oxidase and phenol oxidase activity between samples, Vmax was calculated using the Michaelis–Menten equation.
# [4] = system: bees from Varroa destructor infested colonies; type: in vivo, Apis mellifera
# Protocol: Age-matched bees from colonies with higher (> 10 mites/100 bees) and lower (< 1 mite/100 bees) were placed in hoarding cages and allowed to feed ad libitum on sucrose solution alone or containing paraquat. Survivorship was assessed at 24-h intervals, and LT50 times were calculated by nonlinear regression using a Hill equation.
# glucose oxidase (GOX) = test: Glucose oxidase activity of treated bees (social immunity); type: in vivo, Apis mellifera
# Protocol: as §2
# [5] = system: bees inoculated with Israeli acute paralysis virus (IAPV); test: IAPV-mediated mortality of bees fed KATP modulator or paraquat; type: in vivo, Apis mellifera; parameters: Survivorship after IAPV inoculation compared to IAPV alone: dose or concentration left out as unconfirmed
# Protocol: IAPV was obtained following our previously described methods. Approximately 30 adult bees from a heavily infected IAPV infected colony were froze in liquid nitrogen, ground to a fine powder, and homogenized in a phosphate extraction buffer. The supernatant was collected after centrifuging the emulsion and filtered through a 0.2 micron filter. The filtrate was subsequently centrifuged at 30,000 rpm to pellet the picornavirus particles and was followed by resusopension in PBS and centrifuged at 52,000 rpm overnight. The fractions containing virus particles were dialyzed against cold PBS overnight. Verification that IAPV was the only virus present in the inoculum was performed via qRT-PCR and quantification of IAPV was performed by absolute quantification using standard curve method as previously described.
# Bees were immobilized on ice, then injected with PBS alone or containing IAPV and returned to the incubator. […] Quantification of IAPV mRNA among whole bees and excised insect dorsal vessels was performed by qRT-PCR as detailed below.
# bee dorsal vessel = system: bee dorsal vessel; parameters: method as in PMID 28412203; conditions: cited from earlier work
# Flock House virus (FHV) = system: Flock House virus (FHV); parameters: method as in PMID 28819165; conditions: cited from earlier work
# IAPV = IAPV mRNA titer in excised dorsal vessels by qRT-PCR; type: in vivo, Israeli acute paralysis virus; conditions: pinacidil 24 h prior to IAPV inoculation; vessels excised 24 h post-inoculation
# Protocol: Groups of 30 age-matched bees were fed 1:1 sucrose diet alone or containing KATP modulators or 0.5 mg/mL paraquat for 24 h. Bees were immobilized on ice, then injected with PBS alone or containing IAPV and returned to the incubator. Mortality assessments and sampling of survivors were conducted at 24-h intervals. Quantification of IAPV mRNA among whole bees and excised insect dorsal vessels was performed by qRT-PCR as detailed below.
# (§3) Samples were removed from − 80 °C storage and placed in a nuclease-free chilled bead bath (~ 4 °C) to gently thaw. […] RNA concentrations were then quantified for each sample using the NanoDrop 1-C® instrument. […] Library construction was performed using the Quantitect Reverse Transcription kit according to manufacturer instructions (Qiagen, N.V.). Template cDNA was then quantified by NanoDrop 1-C® and standardized to 500 ng/uL by addition of nuclease-free H2O.
# To accurately quantify virus infection, it was necessary to first construct a standard curve for each target virus. […] Single-stranded DNA concentration was quantified for each cDNA library with the NanoDrop 1-C® instrument (Thermofisher Scientific) and the number of amplicon copies per μL of solution was determined using online calculators available at SciencePrimer.com. […]
# DWV-B = test: Field colony study, change in virus titer by qRT-PCR: DWV-B; type: in vivo, Deformed Wing virus
# Protocol: (§4) Nucleus colonies of bees were established as previously described and relocated to a geographically isolated apiary and were grown to full-size colonies and equalized based on population prior to initiation of the study. The bees were maintained in eight-frame Langstroth equipment and kept as single deeps with a medium super with undrawn foundation. […] DWV inoculum was prepared by injecting filter-sterilized homogenate from a DWV-positive symptomatic bee into white-eyed honey bee pupae. 72-h later, an aliquot of pupae was screened for preliminary confirmation of DWV infection and found to contain between 5E9 and 8E9 viral copies of DWV-A per individual. Remaining pupae were homogenized in ice-cold PBS, with aliquots retained for qRT-PCR screening of DWV, as well as additional viruses relevant to bee health. Homogenate solutions were diluted in 1:1 sucrose and placed in calibrated spray bottles. A treatment and sampling schedule was constructed based on the 21-day egg-to-adult life history of worker bees (Additional file 1: Fig. S1). Both pinacidil and virus solutions were prepared fresh daily. […] A quantity of 15 fully formed adult stage bees were removed from the capped cells and placed into 15 mL conical vials. All samples were stored on dry ice during field collection, then transferred to − 80 °C until virus quantification. Titers of DWV-A, DWV-B, BQCV, IAPV, LSV-1 and LSV-2 were quantified by qRT-PCR using primer sequences described in our previous publications.
# as §3
# (§5) To accurately quantify virus infection, it was necessary to first construct a standard curve for each target virus. […]
# DWV-A = test: Field colony study, change in virus titer by qRT-PCR: DWV-A; type: in vivo, Deformed Wing virus
# Protocol: as §4, §3, §5
# LSV-2 = test: Field colony study, change in virus titer by qRT-PCR: LSV-2; type: in vivo, Lake Sinai virus; conditions: emerging brood, 2 mM pinacidil, colony level
# Protocol: as §4, with “individual.” for “individual. Remaining pupae were homogenized in ice-cold PBS, with aliquots retained for qRT-PCR screening of DWV, as well as additional viruses relevant to bee health. Homogenate solutions were diluted in 1:1 sucrose and placed in calibrated spray bottles. A treatment and sampling schedule was constructed based on the 21-day egg-to-adult life history of worker bees (Additional file 1: Fig. S1). Both pinacidil and virus solutions were prepared fresh daily.”
# as §3, with “Template cDNA was then quantified by NanoDrop 1-C® and standardized to 500 ng/uL by addition of nuclease-free H2O.” left out
# bee-relevant viruses = test: Field colony study, bee-relevant viruses overall; type: in vivo, Apis mellifera
# Protocol: as §4, §3, §5
# [6] = system: Black queen cell virus (BQCV); test: Field colony study, change in virus titer by qRT-PCR: BQCV; type: in vivo
# Protocol: as §4, §3, §5
# [7] = emerging brood, 2 mM pinacidil, colony level
smiles,measurement,setting,value
"C[n+]1ccc(-c2cc[n+](C)cc2)cc1 [paraquat, Paraquat dichloride hydrate]",Mortality,"honey bees [1]; paraquat 1 and 2 mg/mL, 48 h post-exposure",ca. 50%
same,Mortality,"honey bees [1]; paraquat 1 and 2 mg/mL, 72 h post-exposure",ca. 100%
same,Mortality,"honey bees [1]; paraquat, 48 h post-exposure",ca. 20%
same,Mortality,"honey bees [1]; paraquat, 72 h post-exposure",~58%
same,LT50,"honey bees [2]; 0.5 mg/mL paraquat alone, injection experiment",ca. 75 h
same,LT50,"honey bees [2]; oral, paraquat exposure alone",ca. 68 h
same,Reduction of total antioxidant concentrations compared to untreated,[3]; 24 h,1.3 fold
same,Reduction of total antioxidant concentrations compared to control treatment,[3]; 48 h,1.4 fold
same,POX activity,phenoloxidase (POX); 72 h post-exposure,significantly reduced
same,Survivorship difference between low and high mite groups,[4]; 1 and 2 mg/mL paraquat,no statistical differences
same,LT50 (95% CI),"[4]; High mites, paraquat 0.1 mg/mL",169 (142–177) Ba Hours
same,LT50 (95% CI),"[4]; High mites, paraquat 0.5 mg/mL",99 (71–136) Bb Hours
same,LT50 (95% CI),"[4]; High mites, paraquat 1 mg/mL",52 (22–84) Ac Hours
same,LT50 (95% CI),"[4]; High mites, paraquat 2 mg/mL",47 (38–63) Ac Hours
same,LT50 (95% CI),"[4]; Low mites, paraquat 0.1 mg/mL",82 (51–99) Aa Hours
same,LT50 (95% CI),"[4]; Low mites, paraquat 0.5 mg/mL",66 (52–80) Ab Hours
same,LT50 (95% CI),"[4]; Low mites, paraquat 1 mg/mL",54 (38–70) Ab Hours
same,LT50 (95% CI),"[4]; Low mites, paraquat 2 mg/mL",49 (42–56) Ab Hours
same,Survivorship of bees from high versus low mite-infested colonies,"[4]; paraquat 0.1 mg/mL, 96- to 168-h post treatment",significantly increased
same,Mortality in high mite versus low mite colonies,"[4]; paraquat 0.5 mg/mL, 72- and 96-h post treatment",significant (P < 0.05) reduction of mortality
same,Decrease in GOX compared to pinacidil-treated bees,glucose oxidase (GOX); in vivo,3.3 fold
same,Decrease in GOX compared to untreated bees,glucose oxidase (GOX); in vivo,11 fold
same,Survivorship after IAPV inoculation compared to IAPV alone,[5],increased survivorship
same,Mortality of IAPV + paraquat versus untreated control,"[5]; 0.5 mg/mL paraquat, 24- and 48-h post-inoculation",not significantly different
same,Mortality of paraquat + IAPV versus untreated and IAPV-only bees,"[5]; 0.5 mg/mL paraquat, 72 h post-inoculation","significantly (P < 0.05) greater than untreated bees, but significantly less than IAPV-only treated bees"
CC(N/C(=N\C#N)Nc1ccncc1)C(C)(C)C (stereo not shown) [pinacidil],Dorsal vessel contraction rates,bee dorsal vessel,increases
same,Effect against FHV infection of bees,Flock House virus (FHV),protective effect
same,Reduction in IAPV mRNA titer in the dorsal vessel versus IAPV-inoculated bees,IAPV,17.5 fold
same,Antioxidant levels compared to untreated individuals,[3]; 24 h post-treatment,did not reduce
same,Reduction of total antioxidant concentrations,[3]; 72 h,1.5 fold
same,Change of DWV-B titer versus uninoculated colonies,"DWV-B; emerging brood, 2 mM pinacidil",not significantly different
same,Reduction of change in DWV-B titer compared to virus only inoculated colonies,DWV-B; [7],sixfold
same,"DWV-B titers, virus only versus pinacidil + virus",DWV-B; nurse/forager bees,not significantly different
same,Change of DWV-A titer versus uninoculated colonies,"DWV-A; emerging brood, 2 mM pinacidil",not significantly different
same,Reduction of change in DWV-A titer compared to virus only inoculated colonies,DWV-A; [7],eight
same,"DWV-A titers, virus only versus pinacidil + virus",DWV-A; nurse/forager bees,not significantly different
same,Reduction of LSV-2 replication compared to virus inoculation-only colonies,LSV-2,approximately fivefold
same,Reduction of titers of bee-relevant viruses,bee-relevant viruses; colonies treated with pinacidil in the field,up to 75 fold
same,Viral replication in nurse bees,bee-relevant viruses; field study,did not reduce viral replication
same,Viral replication in emerging bees,"bee-relevant viruses; field study, mature colonies",near elimination
same,Change in BQCV titer versus untreated colonies,"[6]; emerging brood, 2 mM pinacidil",not significantly different
same,Reduction of BQCV replication compared to virus only,[6]; [7],3.8 fold
same,BQCV replication compared to virus only inoculated colonies,[6]; nurse/forager bees,did not reduce viral replication
same,POX activity,phenoloxidase (POX); 24- and 72-h exposure,no statistical differences
same,Increase in GOX activity compared to untreated bees,glucose oxidase (GOX); 24-h exposure,3 fold
same,Increase in GOX activity compared to untreated bees,glucose oxidase (GOX); 72-h exposure,2.3 fold
same,Mortality of pinacidil + IAPV versus control treatment,"[5]; 24-, 72-, or 96-h post-inoculation",No significant difference
same,Reduction in mortality compared to control bees,"[5]; pinacidil + IAPV, 48 and 120 h",25%
CCCCNC(=O)NS(=O)(=O)c1ccc(C)cc1 [tolbutamide],Effect on paraquat-induced toxicity,"honey bees [2]; pre-exposure to modulator, 120-h feeding period",did not alter
